Experimental data reported in patent publication US20230068687A1, “PROCESS FOR PREPARING A SOLID FORM OF BASIC AMINO ACID SALTS OF POLYUNSATURATED FATTY ACIDS” (SILICYCLE INC., priority 2020, published 2023).

Columns and labels:
[1] = Stability examination of L-lysine salts stored in clear vials with closed lids at room temperature (Table 1); type: physicochemical; conditions: for TOTOX: Totox=2*PV+AV; for AV / PV: closed lids, room temperature
Experimental: The comparison of oxidative status of basic amino acid salts of PUFAs, starting material in ester form and fish oil in free acid form are assessed by measuring the PV and AV, then all the samples are subjected to the same oxidizing condition over a certain period of time, followed by the measuring PV and AV of the samples. The oxidizing conditions are selected from one of: 1) storage in closed containers at atmospheric condition, opened once daily for the first month, twice weekly for the second month, once weekly for the third month and twice a month up to 6 months; 2) storage in loosely closed containers exposed to air at 45° C. for 1 month.
(§1) Food Lab Analyzer: Among several techniques known in the art for determining the oxidative levels of a sample, CDR FoodLab® Junior analyzer is used herein for determining PV and AV. The procedures are described as below.
(§2) The solid product 0.5 g was dissolved in 2 mL of MeOH and HCl solution with the ratio of 1:10 (v/v). The mixture was stirred for 5 minutes, followed by the addition of 5 mL of water. The mixture was extracted with 3 mL of Hexane containing 100 ppm butylated hydroxytoluene (BHT). The organic layer was dried over MgSO4, filtrated and evaporated under reduced pressure at the temperature of 0-70° C. to get the fish oil in free acid form, which was evaluated with the CDR FoodLab® Junior analyzer to get anisidine and peroxide values using the Food Lab analyzer.
(§3) The molar ratio of EPA to L-lysine was 1:1. The mixture was stirred at atmospheric condition for 5 minutes to obtain a homogenous solution. 30 mL of ethanol was added to precipitate the L-lysine amino acid salt. […] About 4.5 g of EPA-Lys was stored in a 20 ml of clear vial with a diameter of 27 mm, which was placed with closed lids on the bench at room temperature for the stability examination for 90 days.
as §3, with “ratio of DHA to L-lysine” for “ratio of EPA to L-lysine”
The molar ratio of seal oil in free acid form to L-lysine was 1:1. The mixture was stirred at atmospheric condition for 5 minutes to obtain a homogenous solution. 35 mL of ethanol was added to precipitate the L-lysine amino acid salt.

[2] = Oxidative status (peroxide value, anisidine value) of starting materials and products as obtained, CDR FoodLab Junior analyzer; type: physicochemical; conditions: as obtained / as used, before storage
Experimental: The final product in powder form is isolated by evaporating said first and second organic solvents and water from the reaction mixture to recover said basic amino acid salts of PUFAs. Preferably, said evaporation step is carried under reduced pressure between about 0° C.-70° C. depending on the properties of the equipment used. […] The evaporation step requires said first/second organic solvents and water to be in a liquid form, thereby excluding the freeze-drying methods that require the solvents to be frozen. The oxidative status of the obtained final product is quantified by peroxide value (PV), anisidine value (AV) and Totox value. PV is a measure of the level of the primary oxidation products (lipid hydroperoxides) in the product, which is specified in milliequivalents O2 per kg of sample, while the AV is an unspecific measure of saturated and unsaturated carbonyl compounds. Totox is calculated by the equation Totox=2*PV+AV.
as §1, §2

CC/C=C\C/C=C\C/C=C\C/C=C\C/C=C\C/C=C\CCC(=O)O.NCCCC[C@H](N)C(=O)O [DHA-Lys, L-Lysine Salt of Docosahexaenoic Acid] showed a TOTOX ([1]; Time 1 d) of 61.3, an AV ([1]; Time 1 d) of 29.3 A/g and a PV ([1]; Time 1 d) of 16.0 meq O2/Kg. The TOTOX ([1]; Time 61 d) was 11.8, the AV ([1]; Time 61 d) was 4.0 A/g and the PV ([1]; Time 61 d) was 3.9 meq O2/Kg. The “AV (anisidine value)” value [2] was 29.3 A/g and the “PV (peroxide value)” value [2] was 16.0 meqO2/kg.

CC/C=C\C/C=C\C/C=C\C/C=C\C/C=C\CCCC(=O)O.NCCCC[C@H](N)C(=O)O [EPA-Lys, L-Lysine Salt of Eicosapentaenoic Acid] gave a TOTOX ([1]; Time 1 d) of 21.5, an AV ([1]; Time 1 d) of 9.5 A/g and a PV ([1]; Time 1 d) of 6.0 meq O2/Kg. For the same compound, the TOTOX ([1]; Time 61 d) was 3.8, the AV ([1]; Time 61 d) was <0.5 A/g and the PV ([1]; Time 61 d) was 1.9 meq O2/Kg. The “AV (anisidine value)” value [2] was 9.5 A/g and the “PV (peroxide value)” value [2] was 6.0 meqO2/kg.
